The record followed here is PubChem BioAssay AID743339 (Broad Institute, 2014).

Active and inactive are the calls of the source.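 Rule for the calls: active = activation curve crossing 200% at or below the highest valid dose tested for that sample; inconclusive = flat curve with activation between 30 and 70%, or poor fit; inactive = the rest, including signal falling instead of rising.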 A value given as a limit tells only on which side of the number the result lay.

One experiment deals with Leucyl-cystinyl aminopeptidase (Mus musculus) (UniProt Q8C129). Kind of experiment: IRAP activators, dose response, selectivity assay for ERAP1 modulator project, biochemical, Leu-AMC fluorescence, cherry-picked samples (AID 743339). Conditions: purified IRAP, Leu-AMC cleavage fluorescence, 1 h.
Leucyl-cystinyl aminopeptidase (Mus musculus), sequence (Q8C129 whole entry, looked up): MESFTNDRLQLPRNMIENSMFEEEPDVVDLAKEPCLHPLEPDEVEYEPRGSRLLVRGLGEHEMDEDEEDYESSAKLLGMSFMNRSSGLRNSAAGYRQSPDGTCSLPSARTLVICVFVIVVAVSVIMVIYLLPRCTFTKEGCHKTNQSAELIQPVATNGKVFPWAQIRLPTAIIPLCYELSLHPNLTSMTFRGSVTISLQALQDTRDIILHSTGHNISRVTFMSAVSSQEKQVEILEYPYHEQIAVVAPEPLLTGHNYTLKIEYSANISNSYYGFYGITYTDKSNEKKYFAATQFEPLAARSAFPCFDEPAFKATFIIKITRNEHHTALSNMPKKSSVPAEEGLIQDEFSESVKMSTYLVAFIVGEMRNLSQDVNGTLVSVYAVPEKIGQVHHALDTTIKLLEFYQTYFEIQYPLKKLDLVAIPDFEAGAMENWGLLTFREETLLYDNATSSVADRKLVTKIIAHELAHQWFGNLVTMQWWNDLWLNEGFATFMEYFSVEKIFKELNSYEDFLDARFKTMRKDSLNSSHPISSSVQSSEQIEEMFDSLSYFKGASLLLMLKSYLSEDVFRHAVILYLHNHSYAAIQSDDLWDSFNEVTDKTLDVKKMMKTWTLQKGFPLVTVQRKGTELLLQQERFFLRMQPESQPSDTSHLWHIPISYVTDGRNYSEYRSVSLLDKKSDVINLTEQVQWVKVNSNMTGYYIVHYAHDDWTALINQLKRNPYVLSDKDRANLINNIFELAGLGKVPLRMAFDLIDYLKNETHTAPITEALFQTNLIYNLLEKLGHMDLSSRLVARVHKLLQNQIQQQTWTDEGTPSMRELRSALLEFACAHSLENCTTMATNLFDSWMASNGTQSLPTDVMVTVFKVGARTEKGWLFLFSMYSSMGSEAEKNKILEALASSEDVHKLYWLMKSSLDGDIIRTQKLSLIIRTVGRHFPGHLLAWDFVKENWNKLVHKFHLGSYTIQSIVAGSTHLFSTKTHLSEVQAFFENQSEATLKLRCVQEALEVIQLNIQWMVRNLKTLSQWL
For `CC1CN(Cc2cc(=O)oc3cc(O)c(Cl)cc23)CC(C)O1` (stereo not drawn), the AC200 was 1350 nM.
The same measure, in the same setting: next, `O=C(NCc1ccccn1)[C@@H]1[C@@H](CO)[C@@H]2Cn3c(ccc(/C=C/c4ccccc4)c3=O)[C@H]1N2CC1CC1`: 1030 nM.
Take `Cc1c(C)c2ccc(O)c(CN3CCN(C)CC3)c2oc1=O`: the AC200 was 1510 nM.
On to `CN1[C@@H]2Cn3c(ccc(/C=C/c4ccccc4)c3=O)[C@H]1[C@@H](C(=O)NC1CCCC1)[C@@H]2CO`, for which the AC200 is 983 nM.
For `Cc1cc(=O)oc2c(CN3CCN(CCO)CC3)c(O)ccc12`, the AC200 is 1450 nM.
Consider `COc1ccc(-c2cc3ccc(O)cc3oc2=O)cc1`, for which the AC200 was 398 nM.
Take `COC(=O)[C@@H]1[C@@H](CO)[C@@H]2Cn3c(ccc(/C=C/c4ccccc4)c3=O)[C@H]1N2C(=O)C1CCC1`: the AC200 is 1080 nM.
Still for that read-out and setting: in the case of `COCCCn1c(C(=O)N2CCOCC2)cc2c(=O)n3ccccc3nc21` it was > 2600 nM (inactive); in that of `CCN1CCN(Cc2c(O)ccc3c(C)cc(=O)oc23)CC1`, 1540 nM; in that of `C/C(=N\NC(=O)CC#N)c1cc2ccc(O)cc2oc1=O`, 1080 nM.
As for `O=c1ccc2cc(OC3O[C@H](CO)[C@@H](O)[C@H](O)[C@H]3O)c(O)cc2o1` (stereo partly drawn), the AC200 was 346 nM.
On the same count and under the same terms, next, `Cc1c(O)ccc2cc(S(=O)(=O)c3ccccc3)c(=O)oc12`: 439 nM; `CCN(CC)Cc1c(O)c(Cl)cc2c(C)cc(=O)oc12`: 620 nM; `Cc1cc(=O)oc2c(CN3CCCCC3)c(O)ccc12`: 988 nM.
For the molecule `CCN(CC)Cc1c(O)ccc2cc(-c3nc4ccccc4n3C)c(=O)oc12`, the AC200 was 229 nM.
On to `CCCN1[C@@H]2c3ccc(/C=C/c4ccccc4)c(=O)n3C[C@H]1[C@H](CO)[C@H]2C(=O)NCc1ccccn1`, for which the AC200 is 1000 nM.
Take `CCc1c(C)c2cc(Cl)c(O)c(CN(CC)CC)c2oc1=O`: the AC200 was 546 nM.
As for `COCC(=O)N1[C@@H]2Cn3c(ccc(/C=C/c4ccccc4)c3=O)[C@H]1[C@@H](C(=O)N1CCOCC1)[C@@H]2CO`, the AC200 was 757 nM.
Turning to `CCN1[C@@H]2c3ccc(/C=C/c4ccccc4)c(=O)n3C[C@H]1[C@H](CO)[C@H]2C(=O)N1CCOCC1`, the AC200 is 2310 nM.
Take `CCc1c(C)c2cc(Cl)c(O)c(CN(C)C)c2oc1=O`: the AC200 was 471 nM.
Turning to `COC(=O)Cc1c(C)c2ccc(O)c(CNCc3ccc(OC)c(OC)c3)c2oc1=O`, the AC200 is 535 nM.
For the molecule `O=S(=O)(O)c1ccc(N2N=C(c3ccccc3)CC2c2ccccc2)cc1` (stereo not drawn), the AC200 was 1010 nM.
`CN(C)Cc1c(O)ccc2cc(-c3nc4ccccc4n3C)c(=O)oc12`: the AC200 was 202 nM.
For the molecule `CCc1cc(=O)oc2c(CNCc3c(F)cccc3Cl)c(O)ccc12`, the AC200 was 832 nM.
As to `COC(=O)[C@H]1[C@H](CO)[C@H]2Cn3c(ccc(/C=C/c4ccccc4)c3=O)[C@@H]1N2C(=O)C1CCC1`, the AC200 was 842 nM.
For `CCc1cc(=O)oc2c(CN3CCN(C)CC3)c(O)ccc12`, the AC200 is 1540 nM.
Regarding `CC(=O)Oc1cc2oc(=O)cc(C)c2cc1Cl`, the AC200 was 507 nM.
For the molecule `CC(=O)N1[C@@H]2Cn3c(ccc(/C=C/c4ccccc4)c3=O)[C@H]1[C@@H](C(=O)NCC1CC1)[C@@H]2CO`, the AC200 is 1290 nM.

Still in this experiment, the particulars now being: purified IRAP, Leu-AMC cleavage fluorescence, 1 h; at 2.6 µM (top of the series).
Regarding `C[C@@H]1CCCCO[C@@H](CN(C)C(=O)CCC(F)(F)F)[C@@H](C)CN([C@@H](C)CO)C(=O)c2cc(NS(=O)(=O)c3ccccc3)ccc2O1`, the activation is 11.6% (inactive).

The experiment is the same for the next values; noted with them: purified IRAP, Leu-AMC cleavage fluorescence, 1 h; at 5 µM (top of the series).
As for `C[C@@H]1CCCCO[C@@H](CN(C)C(=O)CCC(F)(F)F)[C@@H](C)CN([C@@H](C)CO)C(=O)c2cc(NS(=O)(=O)c3ccc(Cl)cc3)ccc2O1`, the activation was 22.3% (inactive).

The same experiment, now with this note: purified IRAP, Leu-AMC cleavage fluorescence, 1 h; at 5.6 µM (top of the series).
As to `C[C@@H]1CCCCO[C@@H](CN(C)Cc2ccccc2)[C@@H](C)CN([C@H](C)CO)C(=O)c2cc(NS(=O)(=O)c3cccs3)ccc2O1`, the activation was 16.2% (inactive).
As for `C[C@@H]1CCCCO[C@@H](CN(C)Cc2ccc3c(c2)OCO3)[C@@H](C)CN([C@@H](C)CO)C(=O)c2cc(NS(=O)(=O)c3ccccc3)ccc2O1`, the activation is 7.88% (inactive).

The experiment is the same for the next values; noted with them: purified IRAP, Leu-AMC cleavage fluorescence, 1 h; at 8 µM (top of the series).
For the molecule `CCCN(C)C[C@@H]1OCCCC[C@@H](C)Oc2ccc(NS(=O)(=O)c3ccc(OC)cc3)cc2C(=O)N([C@H](C)CO)C[C@@H]1C`, the activation was -24.7% (inactive).

The experiment is the same for the next values; noted with them: purified IRAP, Leu-AMC cleavage fluorescence, 1 h; at 11 µM (top of the series).
Consider `C[C@@H]1CCCCO[C@@H](CN(C)CC2CC2)[C@@H](C)CN([C@H](C)CO)C(=O)c2cc(NS(=O)(=O)c3ccc(Cl)cc3)ccc2O1`, for which the activation was -6.39% (inactive).
Regarding `C[C@@H]1CN([C@H](C)CO)C(=O)c2cc(NC(=O)Nc3ccc(F)cc3)ccc2O[C@H]1CN(C)Cc1ccc(C(=O)O)cc1`, the activation was 1.25% (inactive).
Consider `Cc1ccccc1-c1ccc2c(c1)O[C@@H](CN(C)Cc1ccc(C(=O)O)cc1)[C@@H](C)CN([C@@H](C)CO)S2(=O)=O`, for which the activation is 4.16% (inactive).
With `COc1cccc(S(=O)(=O)N(C)C[C@@H]2Oc3ncccc3C(=O)N([C@H](C)CO)C[C@@H]2C)c1`, the activation is 79.6% (inactive).
For the molecule `C[C@H](CO)N1C[C@H](C)[C@H](CN(C)CC2CCCCC2)Oc2c(NC(=O)Nc3ccc(C(F)(F)F)cc3)cccc2C1=O`, the activation was 12.3% (inactive).
Same read-out and setting: next, `C[C@@H]1CCCCO[C@@H](CN(C)Cc2ccccc2)[C@H](C)CN([C@H](C)CO)C(=O)c2cc(NS(=O)(=O)c3cccs3)ccc2O1`: -6.87% (inactive); `COc1ccc(CN(C)C[C@@H]2OCCCC[C@@H](C)Oc3ccc(NS(=O)(=O)c4cccs4)cc3C(=O)N([C@H](C)CO)C[C@@H]2C)cc1`: 3.66% (inactive).
Still for that read-out and setting: in the case of `CC(=O)N1CCN(C(=O)C2(NC(=O)Nc3ccc(C)cc3)CCCCC2)CC1` it was 10% (inactive); in that of `CCCN(C)C[C@@H]1OCCCC[C@@H](C)Oc2ccc(NS(=O)(=O)c3cccs3)cc2C(=O)N([C@H](C)CO)C[C@@H]1C`, -6.14% (inactive).
For the molecule `CCCN(C)C[C@@H]1OCCCC[C@@H](C)Oc2ccc(NS(=O)(=O)c3ccccc3)cc2C(=O)N([C@H](C)CO)C[C@@H]1C`, the activation is -6.67% (inactive).
For `C[C@@H]1CCCCO[C@@H](CN(C)C)[C@@H](C)CN([C@@H](C)CO)C(=O)c2cc(NS(=O)(=O)c3ccc(F)cc3)ccc2O1`, the activation is -0.129% (inactive).
Same read-out and setting: next, `COc1ccc(S(=O)(=O)Nc2ccc3c(c2)C(=O)N([C@@H](C)CO)C[C@H](C)[C@H](CN(C)C)OCCCC[C@@H](C)O3)cc1`: -2.35% (inactive).
`C[C@@H]1CCCCO[C@@H](CN(C)CC2CC2)[C@@H](C)CN([C@H](C)CO)C(=O)c2cc(NS(=O)(=O)c3cccs3)ccc2O1`: the activation is 11.9% (inactive).
Still for that read-out and setting: in the case of `C[C@@H]1CCCCO[C@@H](CN(C)S(C)(=O)=O)[C@@H](C)CN([C@@H](C)CO)C(=O)c2cc(NS(=O)(=O)c3ccc(Cl)cc3)ccc2O1` it was -13.3% (inactive); in that of `COc1ccc(CN(C)C[C@@H]2OCCCC[C@@H](C)Oc3ccc(NS(=O)(=O)c4cccs4)cc3C(=O)N([C@@H](C)CO)C[C@H]2C)cc1`, -1.66% (inactive).
As for `Cc1ccccc1-c1ccc2c(c1)O[C@@H](CN(C)Cc1ccc(C(=O)O)cc1)[C@@H](C)CN([C@H](C)CO)S2(=O)=O`, the activation was 3.78% (inactive).
Regarding `Cc1noc(C)c1S(=O)(=O)Nc1ccc2c(c1)C(=O)N([C@H](C)CO)C[C@@H](C)[C@@H](CN(C)CC1CCCCC1)OCCCC[C@@H](C)O2`, the activation is 2.83% (inactive).
Turning to `Cc1noc(C)c1NC(=O)N(C)C[C@@H]1Oc2c(NC(=O)Nc3ccc(F)cc3)cccc2C(=O)N([C@H](C)CO)C[C@@H]1C`, the activation is 36.7% (inactive).
With `O=C(C[C@@H]1CC[C@@H]2[C@H](COC[C@H](O)CN2C(=O)Nc2cccc(Cl)c2)O1)N1CCCCC1`, the activation is 7.14% (inactive).
As for `C[C@@H]1CCCCO[C@@H](CN(C)C)[C@@H](C)CN([C@@H](C)CO)C(=O)c2cc(NS(=O)(=O)c3ccc(Cl)cc3)ccc2O1`, the activation is -6.93% (inactive).
As to `C[C@@H]1CN([C@H](C)CO)C(=O)c2cccc(NC(=O)Nc3ccccc3)c2O[C@@H]1CN(C)Cc1ccc(C(=O)O)cc1`, the activation was 17.7% (inactive).
In the case of `COc1ccc(NC(=O)Nc2ccc3c(c2)C(=O)N([C@@H](C)CO)C[C@@H](C)[C@H](CN(C)Cc2ccc(C(=O)O)cc2)OCCCC[C@H](C)O3)cc1`, the activation is 58.5% (inactive).
Turning to `N#Cc1c(N2CCNCC2)nc(-c2ccco2)c2c1CCCC2`, the activation was 56.4% (inactive).
For the molecule `COc1ccc(CN(C)C[C@H]2OCCCC[C@@H](C)Oc3ccc(NS(=O)(=O)c4cccs4)cc3C(=O)N([C@@H](C)CO)C[C@@H]2C)cc1`, the activation was 24.3% (inactive).
Same read-out and setting: in the case of `C[C@@H]1CCCCO[C@@H](CN(C)Cc2ccc(C(=O)O)cc2)[C@H](C)CN([C@@H](C)CO)C(=O)c2cc(NS(=O)(=O)c3ccc(Cl)cc3)ccc2O1` it was -3.97% (inactive); in that of `C[C@@H]1CCCCO[C@H](CN(C)Cc2ccc(C(=O)O)cc2)[C@@H](C)CN([C@H](C)CO)C(=O)c2cc(NC(=O)Nc3ccc(C(F)(F)F)cc3)ccc2O1`, 9.92% (inactive).
For the molecule `CCCN(C)C[C@@H]1OCCCC[C@@H](C)Oc2ccc(NS(=O)(=O)c3ccc(F)cc3)cc2C(=O)N([C@H](C)CO)C[C@@H]1C`, the activation is -17.1% (inactive).
With `C[C@H]1CN([C@@H](C)CO)C(=O)c2cccc(NC(=O)Nc3ccc(C(F)(F)F)cc3)c2O[C@@H]1CN(C)C`, the activation was -7.32% (inactive).
Take `Cc1noc(C)c1NC(=O)Nc1ccc2c(c1)C(=O)N([C@H](C)CO)C[C@@H](C)[C@@H](CN(C)Cc1ccc(C(F)(F)F)cc1)OCCCC[C@@H](C)O2`: the activation was -4.93% (inactive).
With `COc1ccc(NC(=O)Nc2ccc3c(c2)C(=O)N([C@H](C)CO)C[C@@H](C)[C@H](CN(C)Cc2ccc(C(=O)O)cc2)OCCCC[C@@H](C)O3)cc1`, the activation was 10% (inactive).
